Results: the NIST ThermoML archive (doi:10.1021/je060271a)
Where “and” joins values, the source holds several entries; their conditions need not be identical. Equal values may be shown once.

Conditions: 303.16 K, Liquid, Vibrating tube method

CCCCCC(=O)OCC(COC(=O)CCCCC)(COC(=O)CCCCC)COC(=O)CCCCC [pentaerythritol tetrahexanoate]
Conditions	mass density
243.6 kPa	988.4 kg/m3
243.8 kPa	988.7 kg/m3
244.8 kPa	988.5 kg/m3 and 988.6 kg/m3
245.2 kPa	988.4 kg/m3 and 988.6 kg/m3
245.3 kPa	988.5 kg/m3
245.5 kPa	988.5 kg/m3
245.9 kPa	988.5 kg/m3 and 988.6 kg/m3
246.2 kPa	988.5 kg/m3
246.6 kPa	988.5 kg/m3
246.7 kPa	988.4 kg/m3
247.3 kPa	988.6 kg/m3 and 988.5 kg/m3
247.4 kPa	988.4 kg/m3
248.5 kPa	988.5 kg/m3
248.8 kPa	988.5 kg/m3
249.2 kPa	988.4 kg/m3
249.3 kPa	988.6 kg/m3
250.7 kPa	988.5 kg/m3
251.1 kPa	988.4 kg/m3
251.2 kPa	988.6 kg/m3
251.4 kPa	988.5 kg/m3
251.6 kPa	988.5 kg/m3
251.9 kPa	988.5 kg/m3
252.1 kPa	988.5 kg/m3
252.3 kPa	988.5 kg/m3
252.5 kPa	988.6 kg/m3
252.6 kPa	988.4 kg/m3
252.8 kPa	988.6 kg/m3
253 kPa	988.4 kg/m3
253.5 kPa	988.5 kg/m3
253.7 kPa	988.4 kg/m3
254 kPa	988.5 kg/m3
254.2 kPa	988.5 kg/m3
254.6 kPa	988.4 kg/m3
254.7 kPa	988.5 kg/m3
255.1 kPa	988.6 kg/m3
255.2 kPa	988.6 kg/m3
255.4 kPa	988.5 kg/m3
255.6 kPa	988.5 kg/m3
255.9 kPa	988.5 kg/m3
256.3 kPa	988.5 kg/m3
256.5 kPa	988.5 kg/m3
256.6 kPa	988.5 kg/m3
257 kPa	988.6 kg/m3 and 988.5 kg/m3
257.3 kPa	988.6 kg/m3
257.5 kPa	988.5 kg/m3
257.8 kPa	988.6 kg/m3 and 988.5 kg/m3
258 kPa	988.5 kg/m3
258.4 kPa	988.4 kg/m3
258.5 kPa	988.5 kg/m3
258.7 kPa	988.5 kg/m3
259.1 kPa	988.7 kg/m3
259.4 kPa	988.6 kg/m3 and 988.5 kg/m3
259.6 kPa	988.6 kg/m3
259.8 kPa	988.5 kg/m3
260.1 kPa	988.5 kg/m3
260.3 kPa	988.6 kg/m3
260.4 kPa	988.4 kg/m3
260.8 kPa	988.5 kg/m3 and 988.4 kg/m3
261.1 kPa	988.5 kg/m3
261.3 kPa	988.6 kg/m3
261.8 kPa	988.5 kg/m3
262.5 kPa	988.4 kg/m3 and 988.5 kg/m3
262.7 kPa	988.5 kg/m3
263.1 kPa	988.5 kg/m3
263.2 kPa	988.6 kg/m3 and 988.5 kg/m3
263.7 kPa	988.5 kg/m3
264.1 kPa	988.5 kg/m3
264.3 kPa	988.5 kg/m3
264.4 kPa	988.6 kg/m3 and 988.5 kg/m3
265 kPa	988.6 kg/m3
265.1 kPa	988.5 kg/m3
265.3 kPa	988.5 kg/m3
265.7 kPa	988.5 kg/m3
266.2 kPa	988.6 kg/m3
266.3 kPa	988.5 kg/m3
266.4 kPa	988.5 kg/m3 and 988.6 kg/m3
266.7 kPa	988.5 kg/m3 and 988.6 kg/m3
266.9 kPa	988.6 kg/m3
267.1 kPa	988.6 kg/m3
267.4 kPa	988.4 kg/m3
267.7 kPa	988.6 kg/m3
267.9 kPa	988.5 kg/m3
268.3 kPa	988.5 kg/m3
268.6 kPa	988.5 kg/m3 and 988.4 kg/m3
268.8 kPa	988.5 kg/m3
269 kPa	988.4 kg/m3
269.1 kPa	988.5 kg/m3
270 kPa	988.5 kg/m3
270.2 kPa	988.5 kg/m3
270.7 kPa	988.6 kg/m3
271 kPa	988.6 kg/m3
271.2 kPa	988.5 kg/m3
271.4 kPa	988.6 kg/m3
271.6 kPa	988.6 kg/m3
272.1 kPa	988.6 kg/m3 and 988.5 kg/m3
272.4 kPa	988.6 kg/m3
274.2 kPa	988.6 kg/m3
274.7 kPa	988.6 kg/m3 and 988.5 kg/m3
275 kPa	988.5 kg/m3
275.2 kPa	988.5 kg/m3
275.6 kPa	988.5 kg/m3
275.7 kPa	988.6 kg/m3
275.9 kPa	988.5 kg/m3
276.1 kPa	988.4 kg/m3
276.4 kPa	988.6 kg/m3
276.8 kPa	988.4 kg/m3 and 988.5 kg/m3
277.3 kPa	988.5 kg/m3
277.5 kPa	988.5 kg/m3
277.6 kPa	988.5 kg/m3
278 kPa	988.6 kg/m3
278.2 kPa	988.5 kg/m3
278.3 kPa	988.6 kg/m3
279 kPa	988.4 kg/m3 and 988.5 kg/m3
279.2 kPa	988.5 kg/m3
279.5 kPa	988.6 kg/m3
279.9 kPa	988.6 kg/m3
280.2 kPa	988.5 kg/m3
280.6 kPa	988.5 kg/m3
280.8 kPa	988.6 kg/m3
280.9 kPa	988.6 kg/m3
281.3 kPa	988.5 kg/m3
281.8 kPa	988.5 kg/m3
282 kPa	988.6 kg/m3
282.3 kPa	988.6 kg/m3
282.5 kPa	988.6 kg/m3
282.7 kPa	988.5 kg/m3
283.2 kPa	988.5 kg/m3
283.5 kPa	988.6 kg/m3
283.7 kPa	988.5 kg/m3
283.9 kPa	988.6 kg/m3
284.9 kPa	988.6 kg/m3
285.3 kPa	988.4 kg/m3
285.6 kPa	988.6 kg/m3
286.1 kPa	988.5 kg/m3 and 988.6 kg/m3
286.5 kPa	988.6 kg/m3
287 kPa	988.6 kg/m3
287.2 kPa	988.6 kg/m3
287.5 kPa	988.5 kg/m3
287.9 kPa	988.5 kg/m3
288.6 kPa	988.5 kg/m3
289.8 kPa	988.5 kg/m3
290.7 kPa	988.5 kg/m3
291 kPa	988.6 kg/m3
291.5 kPa	988.5 kg/m3
291.7 kPa	988.6 kg/m3
